ChEMBL document CHEMBL5096219, “Design, synthesis and biological evaluation of novel pyrazinone derivatives as PI3K/HDAC dual inhibitors” (Bioorg Med Chem, 2022)

Columns and labels:
MV4-11 [1] = test: Induction of cell cycle arrest in human MV4-11 cells assessed as accumulation of cells at S phase at 50 nM incubated for 48 hrs by […]PI staining based flow cytometry (reference value: 45.5%); type: functional
[2] = target: Phosphatidylinositol 4,5-bisphosphate 3-kinase catalytic subunit alpha isoform (Homo sapiens, UniProt P42336); test: Inhibition of PI3Kalpha (unknown origin) by mobility shift assay
MV4-11 [3] = test: Induction of cell cycle arrest in human MV4-11 cells assessed as accumulation of cells at G0/G1 phase at 50 nM incubated for 48 hrs by […]PI staining based flow cytometry (reference value: 33.1%); type: functional
MCF7 = test: Antiproliferative activity against human MCF7 cells assessed as inhibition of cell proliferation incubated for 72 hrs by MTT assay; type: functional, cell-based; conditions: MCF7, 72 h
MV4-11 [4] = test: Induction of apoptosis in human MV4-11 cells assessed as early apoptotic cells at 450 nM incubated for 48 hrs by Annexin V-FITC/PI staining based flow cytometry (reference value: 0.95%); type: functional
MV4-11 [5] = test: Induction of apoptosis in human MV4-11 cells assessed as necrotic cells at 150 nM incubated for 48 hrs by Annexin V-FITC/PI staining based flow cytometry (reference value: 0.51%); type: functional
MV4-11 [6] = test: cells; type: functional, cell-based; conditions: Homo sapiens, MV4-11, 72 h
Description: Antiproliferative activity against human MV4-11 cells assessed as inhibition of cell proliferation incubated for 72 hrs by CCK8 assay

MV4-11 [7] = test: Induction of apoptosis in human MV4-11 cells assessed as viable cells at 450 nM incubated for 48 hrs by Annexin V-FITC/PI staining based flow cytometry (reference value: 96.5%); type: functional; conditions: read-out: Activity
MV4-11 [8] = test: Induction of apoptosis in human MV4-11 cells assessed as total apoptotic cells at 450 nM incubated for 48 hrs by Annexin V-FITC/PI staining based flow cytometry (reference value: 2.99%); type: functional
MV4-11 [9] = test: Induction of cell cycle arrest in human MV4-11 cells assessed as accumulation of cells at G0/G1 phase at 150 nM incubated for 48 hrs by […]PI staining based flow cytometry (reference value: 33.1%); type: functional
HepG2 = test: Antiproliferative activity against human HepG2 cells assessed as inhibition of cell proliferation incubated for 72 hrs by MTT assay; type: functional, cell-based; conditions: HepG2, 72 h
[10] = target: T1, Protein deacetylase HDAC6 (Homo sapiens, UniProt Q9UBN7); test: Inhibition of HDAC6 (unknown origin)
T1 sequence (Q9UBN7 whole entry): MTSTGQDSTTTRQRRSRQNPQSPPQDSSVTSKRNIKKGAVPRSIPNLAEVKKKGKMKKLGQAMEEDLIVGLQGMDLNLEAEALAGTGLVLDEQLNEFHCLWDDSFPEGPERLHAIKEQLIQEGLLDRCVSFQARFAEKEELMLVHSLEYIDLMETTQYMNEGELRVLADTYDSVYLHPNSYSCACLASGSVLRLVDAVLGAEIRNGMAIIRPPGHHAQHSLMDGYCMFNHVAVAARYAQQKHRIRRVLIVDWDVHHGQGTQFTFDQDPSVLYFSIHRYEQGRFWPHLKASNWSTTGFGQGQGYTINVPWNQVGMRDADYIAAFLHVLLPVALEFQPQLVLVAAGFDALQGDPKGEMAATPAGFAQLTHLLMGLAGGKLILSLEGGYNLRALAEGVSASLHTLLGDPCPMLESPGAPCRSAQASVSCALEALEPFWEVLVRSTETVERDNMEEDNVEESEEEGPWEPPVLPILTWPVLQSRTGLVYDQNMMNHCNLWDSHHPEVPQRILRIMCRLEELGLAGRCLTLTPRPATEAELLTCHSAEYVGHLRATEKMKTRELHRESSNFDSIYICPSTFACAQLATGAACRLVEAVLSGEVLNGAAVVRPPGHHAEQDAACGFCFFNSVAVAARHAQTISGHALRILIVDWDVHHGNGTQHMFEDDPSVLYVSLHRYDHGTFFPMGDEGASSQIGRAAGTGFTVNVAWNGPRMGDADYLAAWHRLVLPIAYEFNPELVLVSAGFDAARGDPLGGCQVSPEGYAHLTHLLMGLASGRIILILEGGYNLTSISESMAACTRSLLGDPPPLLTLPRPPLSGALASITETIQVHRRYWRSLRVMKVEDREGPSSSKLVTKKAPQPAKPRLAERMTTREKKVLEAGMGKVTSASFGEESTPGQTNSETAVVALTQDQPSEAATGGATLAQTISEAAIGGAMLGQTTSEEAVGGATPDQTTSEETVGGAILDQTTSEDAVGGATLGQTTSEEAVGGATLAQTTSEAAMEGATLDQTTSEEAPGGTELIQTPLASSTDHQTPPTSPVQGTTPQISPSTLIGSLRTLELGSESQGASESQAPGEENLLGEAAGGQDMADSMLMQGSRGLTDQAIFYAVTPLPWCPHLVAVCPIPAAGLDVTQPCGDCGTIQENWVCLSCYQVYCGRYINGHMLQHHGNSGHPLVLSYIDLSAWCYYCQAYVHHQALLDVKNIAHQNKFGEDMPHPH

MV4-11 [11] = test: Induction of cell cycle arrest in human MV4-11 cells assessed as accumulation of cells at G2/M phase at 150 nM incubated for 48 hrs by […]PI staining based flow cytometry (reference value: 11.5%); type: functional
MV4-11 [12] = test: Induction of apoptosis in human MV4-11 cells assessed as late apoptotic cells at 450 nM incubated for 48 hrs by Annexin V-FITC/PI staining based flow cytometry (reference value: 2.04%); type: functional
MV4-11 [13] = test: Induction of cell cycle arrest in human MV4-11 cells assessed as accumulation of cells at S phase at 1350 nM incubated for 48 hrs by […]PI staining based flow cytometry (reference value: 45.5%); type: functional
MV4-11 [14] = test: Induction of apoptosis in human MV4-11 cells assessed as late apoptotic cells at 150 nM incubated for 48 hrs by Annexin V-FITC/PI staining based flow cytometry (reference value: 2.04%); type: functional
HL-60 = test: cells; type: functional, cell-based; conditions: Homo sapiens, HL-60, 72 h
Description: Antiproliferative activity against human HL-60 cells assessed as inhibition of cell proliferation incubated for 72 hrs by CCK8 assay

[15] = target: T2, Protein deacetylase HDAC6 (Homo sapiens) (UniProt Q9UBN7); test: Inhibition of HDAC6 in human MV4-11 cells assessed as increase in acetylated alpha-tubulin level incubated for 24 hrs by western blot analysis; type: cell-based; conditions: dose 0.05-0.45 µM, DDE = dose-dependent effect
T2 sequence (whole entry): T1 sequence (Q9UBN7 whole entry)

HCT-116 = test: Antiproliferative activity against human HCT-116 cells assessed as inhibition of cell proliferation incubated for 72 hrs by MTT assay; type: functional, cell-based; conditions: HCT-116, 72 h

Sequence of Phosphatidylinositol 4,5-bisphosphate 3-kinase catalytic subunit alpha isoform (P42336 whole entry, canonical isoform): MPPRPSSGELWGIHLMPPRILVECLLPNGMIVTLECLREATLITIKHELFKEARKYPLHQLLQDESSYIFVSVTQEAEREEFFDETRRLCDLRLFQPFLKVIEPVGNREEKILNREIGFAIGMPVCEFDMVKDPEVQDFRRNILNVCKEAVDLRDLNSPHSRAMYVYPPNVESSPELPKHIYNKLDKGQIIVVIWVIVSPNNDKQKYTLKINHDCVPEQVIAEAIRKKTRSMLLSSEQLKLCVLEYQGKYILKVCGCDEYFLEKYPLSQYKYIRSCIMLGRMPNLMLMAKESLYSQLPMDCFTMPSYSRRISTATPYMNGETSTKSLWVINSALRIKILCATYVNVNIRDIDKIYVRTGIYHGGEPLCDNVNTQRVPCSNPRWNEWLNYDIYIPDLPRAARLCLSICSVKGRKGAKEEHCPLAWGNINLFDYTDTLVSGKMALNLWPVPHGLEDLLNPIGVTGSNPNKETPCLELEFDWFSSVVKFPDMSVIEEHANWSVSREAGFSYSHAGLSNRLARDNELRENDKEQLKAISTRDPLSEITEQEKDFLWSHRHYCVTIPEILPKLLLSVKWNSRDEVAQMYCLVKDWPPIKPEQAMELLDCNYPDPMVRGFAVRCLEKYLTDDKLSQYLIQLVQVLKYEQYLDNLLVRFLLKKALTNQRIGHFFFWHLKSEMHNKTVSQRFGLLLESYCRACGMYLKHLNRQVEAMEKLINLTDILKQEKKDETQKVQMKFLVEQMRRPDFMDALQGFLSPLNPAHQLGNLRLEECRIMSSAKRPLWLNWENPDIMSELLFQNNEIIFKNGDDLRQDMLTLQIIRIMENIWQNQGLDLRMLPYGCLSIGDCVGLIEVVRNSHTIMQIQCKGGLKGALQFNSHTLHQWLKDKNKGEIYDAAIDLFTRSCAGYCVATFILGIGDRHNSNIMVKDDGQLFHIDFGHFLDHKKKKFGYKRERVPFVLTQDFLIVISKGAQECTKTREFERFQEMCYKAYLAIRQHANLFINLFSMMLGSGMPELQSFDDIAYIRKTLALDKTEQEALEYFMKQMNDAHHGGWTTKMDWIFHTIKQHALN

- IC50 [2]: 0.373 µM
- IC50 (MCF7): 0.4 µM
- IC50 (MV4-11 [6]): 0.09 µM
- IC50 (HepG2): 1.19 µM
- IC50 [10]: 0.0045 µM
- IC50 (HL-60): 0.35 µM
- inhibition [15]: Dde
- IC50 (HCT-116): 16.4 µM
Compound: O=C(NO)c1ccc(Cn2cc(-c3cccc4[nH]ncc34)nc(N3CCOCC3)c2=O)cc1
- Activity (MV4-11 [1]): 37.8%
- Activity (MV4-11 [3]): 28.4%
- Activity (MV4-11 [4]): 34.6%
- Activity (MV4-11 [5]): 3.45%
- viability at 0.45 µM (MV4-11 [7]): 18.7%
- Activity (MV4-11 [8]): 80.7%
- Activity (MV4-11 [9]): 25.6%
- Activity (MV4-11 [11]): 32.9%
- Activity (MV4-11 [12]): 46.1%
- Activity (MV4-11 [13]): 25.2%
- Activity (MV4-11 [14]): 14.5%
